This note sets out measurements from the supplement of paper PMC11208160.

The nature of the data set: recombinant barcode read abundance after kanamycin selection (control-corrected) (log10(CPM+1)); higher = more efficient recombination; sequences stand for … in AGTGCAGAGAAAATCGGCCAGTTTTCTCTGCCTGCAGTCCGCATGCCGT…ATTTATGCAGCGGACTGCCTTTCTCCCAAAGTGATAAACCGGACAGTATCATGGACCGGTTTTCCCGGTAATCCGTATTTGCAAGGTTGGTTTCACT; site = the 11-nt target. An outline of the steps: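 Recombination efficiency in this pooled E. coli screen uses counts per million of barcodes at recombinant junctions, averaged and corrected against the control. The reported form is log10(CPM+1). Two replicates were plated on chloramphenicol/ampicillin LB agar as control and two on chloramphenicol/ampicillin/kanamycin with 0.1 mM IPTG.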

As for “GAGTCCACATGGGTTCTAACCTGTTGCGTAG [GAGTCCACTAC_LTGcore_CA_RTGcore_CT] (site GAGTCCACTAC) (LTG core: CA, RTG core: CT)”, the “recombinant barcode read abundance (log10)” value turned out to be 0.829. On to “GAGTCCACTTGGGTTCTAACCTGTTGCGTAC [GAGTCCACTAC_LTGcore_CT_RTGcore_GT] (site GAGTCCACTAC) (LTG core: CT, RTG core: GT)”, for which the “recombinant barcode read abundance (log10)” value is 0.0332. For the sequence “GAGTCCACTTGGGTTCTAACCTGTTGCGTCA [GAGTCCACTAC_LTGcore_CT_RTGcore_TG] (site GAGTCCACTAC) (LTG core: CT, RTG core: TG)”, the “recombinant barcode read abundance (log10)” value amounted to 0.0372. As to “GAGTCCACTTGGGTTCTAACCTGTTGCGTGC [GAGTCCACTAC_LTGcore_CT_RTGcore_GC] (site GAGTCCACTAC) (LTG core: CT, RTG core: GC)”, the “recombinant barcode read abundance (log10)” value amounted to 0.0181.

Take “GAGTCCACTTGGGTTCTAACCTGTTGCGTGG [GAGTCCACTAC_LTGcore_CT_RTGcore_CC] (site GAGTCCACTAC) (LTG core: CT, RTG core: CC)”: the “recombinant barcode read abundance (log10)” value was determined as 0.0805.

In the case of “GAGTCCACTTGGGTTCTAACCTGTTGCGTTA [GAGTCCACTAC_LTGcore_CT_RTGcore_TA] (site GAGTCCACTAC) (LTG core: CT, RTG core: TA)”, the “recombinant barcode read abundance (log10)” value is 0.102. “GAGTCCACTTGGGTTCTAACCTGTTGCGTTC [GAGTCCACTAC_LTGcore_CT_RTGcore_GA] (site GAGTCCACTAC) (LTG core: CT, RTG core: GA)”: the “recombinant barcode read abundance (log10)” value was found to be 0.671. The result for “GAGTCCAGATGGGTTCTAACCTGTTGCGTTC [GAGTCCACTAC_LTGcore_GA_RTGcore_GA] (site GAGTCCACTAC) (LTG core: GA, RTG core: GA)” reads 0.157; that for “GAGTCCAGTTGGGTTCTAACCTGTTGCGTAC [GAGTCCACTAC_LTGcore_GT_RTGcore_GT] (site GAGTCCACTAC) (LTG core: GT, RTG core: GT)”, 0.0422.

On to “GAGTCCATATGGGTTCTAACCTGTTGCGTAG [GAGTCCACTAC_LTGcore_TA_RTGcore_CT] (site GAGTCCACTAC) (LTG core: TA, RTG core: CT)”, for which the “recombinant barcode read abundance (log10)” value was found to be 0.0591.

In the case of “GAGTCCATGTGGGTTCTAACCTGTTGCGTAG [GAGTCCACTAC_LTGcore_TG_RTGcore_CT] (site GAGTCCACTAC) (LTG core: TG, RTG core: CT)”, the “recombinant barcode read abundance (log10)” value was 0.0936. Regarding “GAGTCCTAGTGGGTTCTAACCTGTTGCCTCT [GAGTCCTCTAG_LTGcore_AG_RTGcore_AG] (site GAGTCCTCTAG) (LTG core: AG, RTG core: AG)”, the “recombinant barcode read abundance (log10)” value was determined as 0.0613. With “GAGTCCTCTTGGGTTCTAACCTGTTGCCTAC [GAGTCCTCTAG_LTGcore_CT_RTGcore_GT] (site GAGTCCTCTAG) (LTG core: CT, RTG core: GT)” the figure was 1.02. Take “GAGTCCTCTTGGGTTCTAACCTGTTGCCTCT [GAGTCCTCTAG_LTGcore_CT_RTGcore_AG] (site GAGTCCTCTAG) (LTG core: CT, RTG core: AG)”: the “recombinant barcode read abundance (log10)” value is 1.65. On to “GAGTCCTCTTGGGTTCTAACCTGTTGCCTGG [GAGTCCTCTAG_LTGcore_CT_RTGcore_CC] (site GAGTCCTCTAG) (LTG core: CT, RTG core: CC)”, for which the “recombinant barcode read abundance (log10)” value worked out at 1.39.

Regarding “GAGTCCTCTTGGGTTCTAACCTGTTGCCTTG [GAGTCCTCTAG_LTGcore_CT_RTGcore_CA] (site GAGTCCTCTAG) (LTG core: CT, RTG core: CA)”, the “recombinant barcode read abundance (log10)” value turned out to be 0.753. On to “GAGTCCTGATGGGTTCTAACCTGTTGCCTAG [GAGTCCTCTAG_LTGcore_GA_RTGcore_CT] (site GAGTCCTCTAG) (LTG core: GA, RTG core: CT)”, for which the “recombinant barcode read abundance (log10)” value was 0.62. With “GAGTCCTGATGGGTTCTAACCTGTTGCCTTC [GAGTCCTCTAG_LTGcore_GA_RTGcore_GA] (site GAGTCCTCTAG) (LTG core: GA, RTG core: GA)” the figure was 0.149; with “GAGTCCTGGTGGGTTCTAACCTGTTGCCTCC [GAGTCCTCTAG_LTGcore_GG_RTGcore_GG] (site GAGTCCTCTAG) (LTG core: GG, RTG core: GG)”, 0.0289. “GAGTCCTTTTGGGTTCTAACCTGTTGCCTAA [GAGTCCTCTAG_LTGcore_TT_RTGcore_TT] (site GAGTCCTCTAG) (LTG core: TT, RTG core: TT)”: the “recombinant barcode read abundance (log10)” value was 0.219.

With “GAGTCCTTTTGGGTTCTAACCTGTTGCCTAG [GAGTCCTCTAG_LTGcore_TT_RTGcore_CT] (site GAGTCCTCTAG) (LTG core: TT, RTG core: CT)”, the “recombinant barcode read abundance (log10)” value stood at 0.153. On to “GCGCGACAGTGGGTTCTAACCTGTTGCTTAG [GCGCGACCTAA_LTGcore_AG_RTGcore_CT] (site GCGCGACCTAA) (LTG core: AG, RTG core: CT)”, for which the “recombinant barcode read abundance (log10)” value is 0.642. Take “GCGCGACCTTGGGTTCTAACCTGTTGCTTAC [GCGCGACCTAA_LTGcore_CT_RTGcore_GT] (site GCGCGACCTAA) (LTG core: CT, RTG core: GT)”: the “recombinant barcode read abundance (log10)” value stood at 0.23. With “GCGCGACCTTGGGTTCTAACCTGTTGCTTCC [GCGCGACCTAA_LTGcore_CT_RTGcore_GG] (site GCGCGACCTAA) (LTG core: CT, RTG core: GG)” the figure was 0.0108.

As for “GCGCGACCTTGGGTTCTAACCTGTTGCTTCT [GCGCGACCTAA_LTGcore_CT_RTGcore_AG] (site GCGCGACCTAA) (LTG core: CT, RTG core: AG)”, the “recombinant barcode read abundance (log10)” value came out at 0.345.

Consider “GCGCGACCTTGGGTTCTAACCTGTTGCTTGA [GCGCGACCTAA_LTGcore_CT_RTGcore_TC] (site GCGCGACCTAA) (LTG core: CT, RTG core: TC)”, for which the “recombinant barcode read abundance (log10)” value was 0.0329.

For “GCGCGACGCTGGGTTCTAACCTGTTGCTTGC [GCGCGACCTAA_LTGcore_GC_RTGcore_GC] (site GCGCGACCTAA) (LTG core: GC, RTG core: GC)”, the “recombinant barcode read abundance (log10)” value is 0.0645. With “GCGCGACGTTGGGTTCTAACCTGTTGCTTAC [GCGCGACCTAA_LTGcore_GT_RTGcore_GT] (site GCGCGACCTAA) (LTG core: GT, RTG core: GT)” the figure was 0.0144; with “GCGCGACTATGGGTTCTAACCTGTTGCTTAG [GCGCGACCTAA_LTGcore_TA_RTGcore_CT] (site GCGCGACCTAA) (LTG core: TA, RTG core: CT)”, 0.038; with “GCGGGACACTGGGTTCTAACCTGTTGCCTGT [GCGGGACCTAG_LTGcore_AC_RTGcore_AC] (site GCGGGACCTAG) (LTG core: AC, RTG core: AC)”, 0. Regarding “GCGGGACAGTGGGTTCTAACCTGTTGCCTCT [GCGGGACCTAG_LTGcore_AG_RTGcore_AG] (site GCGGGACCTAG) (LTG core: AG, RTG core: AG)”, the “recombinant barcode read abundance (log10)” value stood at 0. Take “GCGGGACCCTGGGTTCTAACCTGTTGCCTGG [GCGGGACCTAG_LTGcore_CC_RTGcore_CC] (site GCGGGACCTAG) (LTG core: CC, RTG core: CC)”: the “recombinant barcode read abundance (log10)” value stood at 1.52. With “GCGGGACGCTGGGTTCTAACCTGTTGCCTGC [GCGGGACCTAG_LTGcore_GC_RTGcore_GC] (site GCGGGACCTAG) (LTG core: GC, RTG core: GC)”, the “recombinant barcode read abundance (log10)” value came out at 0.0844. Regarding “GCGGGACGGTGGGTTCTAACCTGTTGCCTCC [GCGGGACCTAG_LTGcore_GG_RTGcore_GG] (site GCGGGACCTAG) (LTG core: GG, RTG core: GG)”, the “recombinant barcode read abundance (log10)” value stood at 0.182. With “GGACACCAGTGGGTTCTAACCTGTTGCCTAG [GGACACCCTAG_LTGcore_AG_RTGcore_CT] (site GGACACCCTAG) (LTG core: AG, RTG core: CT)” the figure was 0.143; with “GGACACCAGTGGGTTCTAACCTGTTGCCTCT [GGACACCCTAG_LTGcore_AG_RTGcore_AG] (site GGACACCCTAG) (LTG core: AG, RTG core: AG)”, 0.0138. For “GGACACCCGTGGGTTCTAACCTGTTGCCTAG [GGACACCCTAG_LTGcore_CG_RTGcore_CT] (site GGACACCCTAG) (LTG core: CG, RTG core: CT)”, the “recombinant barcode read abundance (log10)” value was found to be 1.2. For the sequence “GGACACCCTTGGGTTCTAACCTGTTGCCTAC [GGACACCCTAG_LTGcore_CT_RTGcore_GT] (site GGACACCCTAG) (LTG core: CT, RTG core: GT)”, the “recombinant barcode read abundance (log10)” value was 1.33. With “GGACACCCTTGGGTTCTAACCTGTTGCCTAG [GGACACCCTAG_LTGcore_CT_RTGcore_CT] (site GGACACCCTAG) (LTG core: CT, RTG core: CT)”, the “recombinant barcode read abundance (log10)” value is 2.43. With “GGACACCCTTGGGTTCTAACCTGTTGCCTTC [GGACACCCTAG_LTGcore_CT_RTGcore_GA] (site GGACACCCTAG) (LTG core: CT, RTG core: GA)” the figure was 0.732.

As to “GGACACCCTTGGGTTCTAACCTGTTGCCTTG [GGACACCCTAG_LTGcore_CT_RTGcore_CA] (site GGACACCCTAG) (LTG core: CT, RTG core: CA)”, the “recombinant barcode read abundance (log10)” value was determined as 1.32. On to “GGACACCTCTGGGTTCTAACCTGTTGCCTAG [GGACACCCTAG_LTGcore_TC_RTGcore_CT] (site GGACACCCTAG) (LTG core: TC, RTG core: CT)”, for which the “recombinant barcode read abundance (log10)” value was determined as 0.117.

As to “GGCTCCCATTGGGTTCTAACCTGTTGCGGAT [GGCTCCCCTCC_LTGcore_AT_RTGcore_AT] (site GGCTCCCCTCC) (LTG core: AT, RTG core: AT)”, the “recombinant barcode read abundance (log10)” value amounted to 0.138.
